Key:
StNrdD (WT-StNrdD) = molecular target: T1, StNrdD (WT-StNrdD) (Streptococcus thermophilus, UniProt A0A3G6JS83); assay: cryo-EM ([…] Å); format: binding; details: allosteric specificity effector site at dimer interface; seen with both ATP and dATP; 1 mM TTP, 1 mM GTP, pH 7.5
T1 construct: gene DF198_09700; full length, 734 residues, N-terminal His6 with thrombin site (pET15b), tag cleaved before crystallization; expressed in E. coli T7 Express; dimer; Cys400 thiyl, Gly697 glycyl radical
T1 sequence (A0A3G6JS83 1-734): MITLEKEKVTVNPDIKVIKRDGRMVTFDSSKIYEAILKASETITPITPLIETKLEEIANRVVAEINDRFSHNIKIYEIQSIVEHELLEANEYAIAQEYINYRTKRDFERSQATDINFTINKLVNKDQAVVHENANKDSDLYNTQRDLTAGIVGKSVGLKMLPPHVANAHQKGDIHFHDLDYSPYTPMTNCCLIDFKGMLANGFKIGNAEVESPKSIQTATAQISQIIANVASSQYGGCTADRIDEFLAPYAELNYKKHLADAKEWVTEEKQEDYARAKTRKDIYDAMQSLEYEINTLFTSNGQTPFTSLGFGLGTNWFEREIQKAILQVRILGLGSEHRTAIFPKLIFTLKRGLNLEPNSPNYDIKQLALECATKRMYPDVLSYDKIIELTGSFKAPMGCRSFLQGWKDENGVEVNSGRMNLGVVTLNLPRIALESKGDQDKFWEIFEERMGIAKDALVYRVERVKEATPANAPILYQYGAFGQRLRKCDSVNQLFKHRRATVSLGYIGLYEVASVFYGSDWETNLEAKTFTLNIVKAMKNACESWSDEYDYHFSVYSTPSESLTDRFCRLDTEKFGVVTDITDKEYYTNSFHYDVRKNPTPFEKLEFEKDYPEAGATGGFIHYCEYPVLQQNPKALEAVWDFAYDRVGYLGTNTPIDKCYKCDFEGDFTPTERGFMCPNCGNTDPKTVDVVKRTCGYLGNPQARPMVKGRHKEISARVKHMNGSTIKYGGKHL

ΔConeOnly-StNrdD = molecular target: T2, ΔConeOnly-StNrdD (Streptococcus thermophilus, UniProt A0A3G6JS83); assay: LC-MS/MS of dGTP product after glycyl radical activation; format: biochemical; details: 1 mM GTP, 1 mM TTP, no activity effector; 0.15 µM glycyl radical; 37 °C, 120 s; anaerobic
T2 construct: gene DF198_09700; cone domain removed (residues 1 to 115 deleted), connector kept; N-terminal His6 with thrombin site (pET15b); expressed in E. coli T7 Express
T2 sequence (A0A3G6JS83 116-734): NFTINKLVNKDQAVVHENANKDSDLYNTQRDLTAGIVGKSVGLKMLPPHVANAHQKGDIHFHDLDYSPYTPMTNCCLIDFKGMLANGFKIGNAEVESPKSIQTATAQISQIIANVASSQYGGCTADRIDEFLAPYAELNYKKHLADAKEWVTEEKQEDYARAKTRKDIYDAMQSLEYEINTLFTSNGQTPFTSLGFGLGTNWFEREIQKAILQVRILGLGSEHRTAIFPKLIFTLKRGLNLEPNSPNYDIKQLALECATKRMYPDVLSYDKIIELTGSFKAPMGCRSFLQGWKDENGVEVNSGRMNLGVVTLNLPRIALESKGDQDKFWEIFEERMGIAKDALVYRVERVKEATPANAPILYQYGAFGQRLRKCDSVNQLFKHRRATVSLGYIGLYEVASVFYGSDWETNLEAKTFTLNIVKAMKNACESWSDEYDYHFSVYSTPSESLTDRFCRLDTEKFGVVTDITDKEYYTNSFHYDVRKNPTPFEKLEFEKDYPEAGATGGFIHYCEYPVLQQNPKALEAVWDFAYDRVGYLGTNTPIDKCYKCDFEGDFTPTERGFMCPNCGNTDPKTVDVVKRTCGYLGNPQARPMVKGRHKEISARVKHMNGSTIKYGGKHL

## Cc1cn([C@H]2C[C@H](O)[C@@H](COP(=O)(O)OP(=O)(O)OP(=O)(O)O)O2)c(=O)[nH]c1=O [TTP]
StNrdD (WT-StNrdD)
  cryo-EM (3.6 Å): both structures have density for the TTP specificity effector bound at the dimer interface

## Nc1nc2c(ncn2[C@@H]2O[C@H](COP(=O)(O)OP(=O)(O)OP(=O)(O)O)[C@@H](O)[C@H]2O)c(=O)[nH]1 [GTP]
ΔConeOnly-StNrdD
  LC-MS/MS of dGTP product after glycyl radical activation: GTP turnover proceeds in the absence of allosteric inhibitor dATP, although at a lower yield
